In PMC11003488 (Journal of Enzyme Inhibition and Medicinal Chemistry, 2023):
Read-outs that look alike come from different tables or passages of the source.

Tests used:
LOX IMVI = test: NCI-60 SRB growth inhibition, one-dose and five-dose; format: cell-based; conditions: Homo sapiens
[1] = tested on: NCI 60-cell line panel (full panel); test: NCI-60 SRB growth inhibition, full panel mean / MG-MID; format: cell-based, human; conditions: for GI50: Homo sapiens, 60 cell
BT-549 = test: NCI-60 SRB growth inhibition, one-dose and five-dose; format: cell-based; conditions: Homo sapiens
NCI-H322M = test: as above; format: cell-based; conditions: Homo sapiens
COLO 205 = test: as above; format: cell-based; conditions: Homo sapiens
T-47D = test: as above; format: cell-based; conditions: Homo sapiens, T47D
HCC-2998 = test: as above; format: cell-based; conditions: Homo sapiens
K-562 = test: as above; format: cell-based; conditions: Homo sapiens
PC-3 = test: as above; format: cell-based; conditions: Homo sapiens
OVCAR-4 = test: as above; format: cell-based; conditions: Homo sapiens
SF-268 = test: as above; format: cell-based; conditions: Homo sapiens
MCF7 = test: as above; format: cell-based; conditions: Homo sapiens
EKVX = test: as above; format: cell-based; conditions: Homo sapiens
OVCAR-5 = test: as above; format: cell-based; conditions: Homo sapiens
HOP-92 = test: as above; format: cell-based; conditions: Homo sapiens
HT29 = test: as above; format: cell-based; conditions: Homo sapiens
SK-OV-3 = test: as above; format: cell-based; conditions: Homo sapiens
HCT-15 = test: as above; format: cell-based; conditions: Homo sapiens
NCI-H226 = test: as above; format: cell-based; conditions: Homo sapiens
IGROV1 = test: as above; format: cell-based; conditions: Homo sapiens
NCI/ADR-RES = test: as above; format: cell-based; conditions: Homo sapiens
M14 = test: as above; format: cell-based; conditions: Homo sapiens
786-0 = test: as above; format: cell-based; conditions: Homo sapiens
HCT-116 = test: as above; format: cell-based; conditions: Homo sapiens
NCI-H522 = test: as above; format: cell-based; conditions: Homo sapiens
OVCAR-3 = test: as above; format: cell-based; conditions: Homo sapiens
TK-10 = test: as above; format: cell-based; conditions: Homo sapiens
SK-MEL-28 = test: as above; format: cell-based; conditions: Homo sapiens
CCRF-CEM = test: as above; format: cell-based; conditions: Homo sapiens
MALME-3M = test: as above; format: cell-based; conditions: Homo sapiens
SK-MEL-5 = test: as above; format: cell-based; conditions: Homo sapiens
NCI-H460 = test: as above; format: cell-based; conditions: Homo sapiens
HOP-62 = test: as above; format: cell-based; conditions: Homo sapiens
NCI-H23 = test: as above; format: cell-based; conditions: Homo sapiens
A498 = test: as above; format: cell-based; conditions: Homo sapiens
U251 = test: as above; format: cell-based; conditions: Homo sapiens
SNB-75 = test: as above; format: cell-based; conditions: Homo sapiens
ACHN = test: as above; format: cell-based; conditions: Homo sapiens
UACC-62 = test: as above; format: cell-based; conditions: Homo sapiens
HS 578 T = test: as above; format: cell-based; conditions: Homo sapiens
SK-MEL-2 = test: as above; format: cell-based; conditions: Homo sapiens, SK-MEL-2, read-out: percent growth inhibition
KM12 = test: as above; format: cell-based; conditions: Homo sapiens
[2] = read-out: percent growth inhibition

CC(=O)Nc1ccc(CNc2cccc(C(=O)/C=C/c3cccnc3)c2)cc1 [Compound 5b, (E)-N-(4-(((3–(3-(pyridin-3-yl)acryloyl)phenyl)amino)methyl)phenyl)acetamide]
GI50 (LOX IMVI): 1650 nM
inhibition at 10 µM (LOX IMVI; [2]): 199%
GI50 ([1]; read-out: Full panel GI50 mean): 4650 nM
GI50 ([1]; read-out: Full panel MG-MID GI50): 4650 nM
Full panel Mean GI % ([1]; mean over NCI-60 panel, single dose 10 µM): 123.16%
GI50 (BT-549; BT-549): 2780 nM
inhibition at 10 µM (BT-549; BT-549, read-out: percent growth inhibition): 174%
GI50 (NCI-H322M): 13700 nM
inhibition at 10 µM (NCI-H322M; [2]): 29.6%
GI50 (COLO 205; COLO 205): 10900 nM
inhibition at 10 µM (COLO 205; COLO 205, read-out: percent growth inhibition): 156%
GI50 (T-47D): 4140 nM
inhibition at 10 µM (T-47D; [2]): 82%
GI50 (HCC-2998; HCC 2998): 1820 nM
inhibition at 10 µM (HCC-2998; HCC 2998, read-out: percent growth inhibition): 195%
GI50 (K-562; K562): 2520 nM
inhibition at 10 µM (K-562; K562, read-out: percent growth inhibition): 99.8%
GI50 (PC-3; PC-3): 3050 nM
inhibition at 10 µM (PC-3; PC-3, read-out: percent growth inhibition): 98.8%
GI50 (OVCAR-4; OVCAR-4): 8630 nM
inhibition at 10 µM (OVCAR-4; OVCAR-4, read-out: percent growth inhibition): 88.5%
GI50 (SF-268; SF-268): 13600 nM
inhibition at 10 µM (SF-268; SF-268, read-out: percent growth inhibition): 88.6%
GI50 (MCF7; MCF7): 1380 nM
inhibition at 10 µM (MCF7; MCF7, read-out: percent growth inhibition): 178%
GI50 (EKVX): 4870 nM
inhibition at 10 µM (EKVX; [2]): 94.2%
GI50 (OVCAR-5; OVCAR-5): 3440 nM
inhibition at 10 µM (OVCAR-5; OVCAR-5, read-out: percent growth inhibition): 103%
GI50 (HOP-92; HOP-92): 8470 nM
inhibition at 10 µM (HOP-92; HOP-92, read-out: percent growth inhibition): 68.5%
GI50 (HT29; HT-29): 2190 nM
inhibition at 10 µM (HT29; HT-29, read-out: percent growth inhibition): 182%
GI50 (SK-OV-3; SK-OV-3): 13900 nM
inhibition at 10 µM (SK-OV-3; SK-OV-3, read-out: percent growth inhibition): 15.2%
GI50 (HCT-15; HCT-15): 2050 nM
inhibition at 10 µM (HCT-15; HCT-15, read-out: percent growth inhibition): 138%
GI50 (NCI-H226; NCI-H226): 2760 nM
inhibition at 10 µM (NCI-H226; NCI-H226, read-out: percent growth inhibition): 116%
GI50 (IGROV1; IGROV-1): 2300 nM
inhibition at 10 µM (IGROV1; IGROV-1, read-out: percent growth inhibition): 123%
GI50 (NCI/ADR-RES): 3120 nM
inhibition at 10 µM (NCI/ADR-RES; [2]): 91.1%
GI50 (M14; M14): 2910 nM
inhibition at 10 µM (M14; M14, read-out: percent growth inhibition): 141%
GI50 (786-0; 786-0): 3430 nM
inhibition at 10 µM (786-0; 786-0, read-out: percent growth inhibition): 160%
GI50 (HCT-116; HCT-116, HCT-116, five-dose screening): 1800 nM
inhibition at 10 µM (HCT-116; HCT-116, read-out: percent growth inhibition): 196%
GI50 (NCI-H522; NCI-H522): 1670 nM
inhibition at 10 µM (NCI-H522; NCI-H522, read-out: percent growth inhibition): 165%
GI50 (OVCAR-3; OVCAR-3): 2850 nM
inhibition at 10 µM (OVCAR-3; OVCAR-3, read-out: percent growth inhibition): 190%
GI50 (TK-10; TK-10): 2530 nM
inhibition at 10 µM (TK-10; TK-10, read-out: percent growth inhibition): 85.3%
GI50 (SK-MEL-28; SK-MEL-28): 1960 nM
inhibition at 10 µM (SK-MEL-28; SK-MEL-28, read-out: percent growth inhibition): 166%
GI50 (CCRF-CEM): 2800 nM
inhibition at 10 µM (CCRF-CEM; [2]): 141%
GI50 (MALME-3M): 2190 nM
inhibition at 10 µM (MALME-3M; [2]): 132%
GI50 (SK-MEL-5; SK-MEL-5): 6510 nM
inhibition at 10 µM (SK-MEL-5; SK-MEL-5, read-out: percent growth inhibition): 174%
GI50 (NCI-H460; NCI-H460): 2870 nM
inhibition at 10 µM (NCI-H460; NCI-H460, read-out: percent growth inhibition): 107%
GI50 (HOP-62; HOP-62): 12700 nM
inhibition at 10 µM (HOP-62; HOP-62, read-out: percent growth inhibition): 74%
GI50 (NCI-H23; NCI-H23): 3220 nM
inhibition at 10 µM (NCI-H23; NCI-H23, read-out: percent growth inhibition): 148%
GI50 (A498; A498): 13400 nM
inhibition at 10 µM (A498; A498, read-out: percent growth inhibition): 17.5%
GI50 (U251; U-251): 1900 nM
inhibition at 10 µM (U251; U-251, read-out: percent growth inhibition): 166%
GI50 (SNB-75; SNB-75): 8990 nM
inhibition at 10 µM (SNB-75; SNB-75, read-out: percent growth inhibition): 31.8%
GI50 (ACHN): 1900 nM
inhibition at 10 µM (ACHN; [2]): 165%
GI50 (UACC-62; UACC-62): 5030 nM
inhibition at 10 µM (UACC-62; UACC-62, read-out: percent growth inhibition): 162%
GI50 (HS 578 T): 2570 nM
inhibition at 10 µM (HS 578 T; [2]): 88.3%
inhibition at 10 µM (SK-MEL-2): 52.7%
GI50 (KM12; KM12): 2250 nM
inhibition at 10 µM (KM12; KM12, read-out: percent growth inhibition): 162%
